Test results reported in patent US20240216412A1, “OXIDIZED NICOTINAMIDE ADENINE DINUCLEOTIDE (NAD+) PRECURSOR TREATMENT FOR HEART FAILURE ALLEVIATION INDEPENDENT OF MITOCHONDRIAL PROTEIN DEACETYLATION” (University of Washington, priority 2022, published 2024).

What was measured:
[1] = system: retinol oxidation by SDRs; test: Retinoid measurements in heart tissue (LC-MS/MS); type: in vivo, mouse; details: TAC hearts, WT and Sirt3Ko mice
Description: Retinoid measurements. Analysis of all-trans-retinyl ester palmitate (RP), all-trans,-retinol (ROL) was done in collaboration with Dr. Nina Isoherranen laboratory using previously established methods (Czuba et al., 2020). RP, ROL were purchased from Toronto Research Chemicals (North York, ON), and retinyl ester palmitate-d4 (RP-d4) and all-trans-retinol-d6 (ROLd6) were purchased from Cambridge Isotopes (Andover, MA). Blank human serum (DC MASS SPECT GOLD MSG4000) for standard curve and quality control matrix was purchased from Golden West Diagnostics (Temecula, CA). Solvents for liquid chromatography tandem mass spectrometry (LC-MS/MS) were Optima LC-MS grade and purchased from Fisher Scientific (Pittsburgh, PA). […]
RP and ROL concentrations were determined on an AB Sciex 5500 QTRAP mass spectrometer (AB Sciex, Foster City), coupled with an Agilent 1290 UHPLC (Agilent, Santa Clara, CA) using a Ascentis Express RP-amide column (2.1×150 mm, […]) and guard column (2.1×5 mm, 2.7 μm). […]
RP and ROL were detected in positive ion mode atmospheric pressure chemical ionization (APCI) mode using selected reaction monitoring (SRM). […] The CE was 25 V, DP was 60 V, entrance potential was 10 V, and collision exit potential was 10 V. Peaks were integrated and quantified using MultiQuant 2.1.1 (AB Sciex, Foster City, CA). […]

Mrpp2 = Mrpp2 dehydrogenase activity in heart homogenates; type: in vivo, mouse; details: NR treated failing (TAC) hearts, matching sham operated controls
Method: Enzyme Activities. Citrate synthase (CS), Complex I (CI) and Cytochrome C Oxidase (CIV), and Mrpp2 dehydrogenase activities were determined in heart tissue homogenates at 30° C. using a protocol adapted from previously published methods (Spinazzi et al., 2012). Briefly, for CS activity frozen cardiac tissue (25 mg) was homogenized at 4° C. in CelLytic™ MT Cell Lysis Reagent (C3228) and then incubated on ice for 30 minutes. The samples were then centrifuged at 10,000×g for 10 minutes at 4° C. and protein concentration determined. CS activity was analyzed in 100 mM Tris buffer containing 0.1% Triton X-100, pH 8.0 as previously described (Spinazzi et al., 2012). […] CIV activity was analyzed in 100 mM potassium phosphate buffer as previously described (Spinazzi et al., 2012). […] Cl activity was analyzed in 100 mM potassium phosphate buffer as previously described (Spinazzi et al., 2012). In parallel, a separate reactions containing the same quantity of reagents and sample but with the addition of 10 μl of 1 mM rotenone solution. The reactions were started by adding 6 μl of ubiquinone (10 mM), mix and follow the decrease of absorbance at 340 nm for 2 min. The dehydrogenase activity of Mrpp2 was measured as described (Falk et al., 2016) in the reverse direction for reduction of acetoacetyl-CoA (30 mM) to L-3-hydroxyacyl-CoA. The reaction was monitored as the decrease of absorbance at 340 nm.

For `NC(=O)c1ccc[n+]([C@@H]2O[C@H](CO)[C@@H](O)[C@H]2O)c1` [NR, Nicotinamide riboside chloride], the “Retinol and retinylpalmitate accumulation (bottleneck in SDR reactions)” value [1] was “removed the “bottleneck”” and the “Increase in Mrpp2 dehydrogenase activity” value (Mrpp2) was ~2 fold.
